According to US20040157772A1, “Use of a gatran for the manufacture of a medicament of the treatment of pulmonary fibrosis” (priority 2001, published 2004):

Experiments:
[1] = tested on: bleomycin-induced lung fibrosis; assay: Bleomycin-induced lung fibrosis model in rats, inogatran by constant i.v. infusion; assay type: in vivo, Sprague Dawley rats
Description: Forty male Sprague Dawley rats weighing 200 g were kept in cages (2 rats/cage) covered with filter tops to prevent spreading of carcinogenic metabolites of bleomycin. The rats had free access to food and water.
The rats were split into four groups:
Group 1—8 rats—received 0.9% NaCl (1 mL/kg) as a control (only 6 animals were ultimately used, the other 2 were used for different purposes).
Group 2—8 rats—received induction by way of an i.t. 2.5 mg/kg (1 mL/kg) bleomycin instillation (a 15 IE injection solution (Lundbeck)).
Group 3—12 rats—received bleomycin induction as above, plus a constant i.v. infusion of 0.9% NaCl solution (5.0 μL/h) (only 8 animals were ultimately used, the other 4 were used for different purposes).
(§1) Group 4—12 rats—received bleomycin induction as above, plus a constant i.v. infusion of inogatran (5 μmol/kg/h) loaded in Alzet® 2ML2 pumps at a concentration of 200 μmol/mL (88 mg/mL) in 0.9% NaCl (only 8 animals were ultimately used, the other 4 were used for different purposes).
The rats were anaesthetised by way of an i.p. injection (2 mL/kg) of Ketalar™ (50 mg/mL ketamin; Parke-Davis)/Rompun.vet™ (20 mg/mL xylazin; Bayer) (1.75 mL/0.35 mL). A pre-filled minipump connected to a PE60 catheter was inserted into the jugularis vein. A s.c. pocket was created on the back of the animal. The pump was led into this pocket. The incision on the neck was closed with wound clips.
The pre-filled pump with catheter was incubated in 37° C. 0.9% NaCl overnight before implantation to enable immediate pumping after surgery. This was to avoid clotting in the catheter.
After 14 days, all rats received an overdose of pentobarbital (i.p.). The rats were weighed and the lung was dissected and weighed. One lobe was placed in Histofix™ (buffered 5% formaldehyde solution) for histological examination. […]
The following parameters were measured: […]
Total collagen (quantification of hydroxyproline according to the procedure described in Stegemann-Stadler et al, Determinations of Hydroxyproline, Clin. Chim. Acta (1967) 18, 267-273).

[2] = Concentration of inogatran in plasma on day 6; assay type: in vivo; settings: Sprague-Dawley, rat, iv, rats, constant i.v. infusion 5 μmol/kg/h from Alzet pumps, day 6 after implantation, approximately
Description: as §1
Plasma and bronchiolar lavage fluid (BAL) were collected from four rats in groups 3 and 4, and from two rats in group 1, six days after induction, for quantification of plasma concentration of compound and thrombin activity in BAL.
Concentration of inogatran in plasma on day 6.

## N=C(N)NCCCNC(=O)[C@@H]1CCCCN1C(=O)[C@@H](CC1CCCCC1)NCC(=O)O [inogatran, HOOC—CH2-(R)Cha-Pic-Nag-H]
[1]; bleomycin i.t. 2.5 mg/kg, constant i.v. infusion 5 μmol/kg/h, day 14, vehicle control 2.34±0.14, P=0.0008
  hydroxyproline content in the lungs (total collagen): 1.37±0.10 μg/mg tissue
[1]; bleomycin-induced rats, constant i.v. infusion, day 14
  inhibition of collagen deposition: almost complete inhibition
[1]; bleomycin-induced rats, inogatran 4-5 μmol/kg/hr
  effect on total lung weight (wet-weight): no effect
[2]
  concentration at 6 day: 2 to 7 µM
